Data: ChEMBL document CHEMBL1201862, “PubChem BioAssay data set” (2004)
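Results reflect a 48-hour exposure of cells in 96-well plates to compound at five concentrations. Abbreviation: GI50, concentration required for 50% inhibition of growth.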 The source made the active and inactive calls. No stated cut-off is given here; in the data, active = GI50 up to about 1.1 µM and inactive = higher.

Columns and labels:
Assay in all cases: inhibition of tumour cell growth, NCI panel, 48 h
HOP-92 = system: HOP-92
DU-145 = system: DU-145
SK-OV-3 = system: SK-OV-3
PC-3 = system: PC-3
UACC-62 = system: UACC-62
SNB-19 = system: SNB-19
786-0 = system: 786-0
ACHN = system: ACHN
MDA-N = system: MDA-N
OVCAR-8 = system: OVCAR-8
UACC-257 = system: UACC-257
SF-539 = system: SF-539
SNB-75 = system: SNB-75
HCT-15 = system: HCT-15
T47D = system: T47D
NCI/ADR-RES = system: NCI/ADR-RES
NCI-H23 = system: NCI-H23
K562 = system: K562
HOP-62 = system: HOP-62
SW-620 = system: SW-620

Measured: GI50

Cc1ccc(C2=C(Cl)C(=O)C(c3ccc(C)cc3)=C(Cl)C2=O)cc1
inactive: HOP-92 > 100 µM | DU-145 > 100 µM | SK-OV-3 > 100 µM | PC-3 > 100 µM | UACC-62 > 100 µM | SNB-19 > 100 µM | 786-0 > 100 µM | ACHN > 100 µM | MDA-N > 100 µM | OVCAR-8 > 100 µM | UACC-257 > 100 µM | SF-539 > 100 µM | SNB-75 > 100 µM | T47D > 100 µM | NCI/ADR-RES > 100 µM | NCI-H23 > 100 µM | K562 > 100 µM | HOP-62 > 100 µM | SW-620 > 100 µM
> 100 µM: HCT-15

CCCC(=O)NC1=C(Cl)C(=O)c2ccccc2C1=O
1.68 µM: HCT-15
inactive: HOP-92 1.82 µM | DU-145 8.32 µM | SK-OV-3 8.67 µM | PC-3 3.23 µM | UACC-62 2.32 µM | SNB-19 6.89 µM | 786-0 4.53 µM | ACHN 1.73 µM | MDA-N 4.11 µM | OVCAR-8 5.02 µM | UACC-257 4.29 µM | SF-539 2.45 µM | SNB-75 5.09 µM | T47D 2.25 µM | NCI/ADR-RES 3.32 µM | NCI-H23 3.03 µM | K562 2.07 µM | HOP-62 9.23 µM | SW-620 1.79 µM

COc1cc2c(c3oc4c(O)cccc4c(=O)c13)CC(C(C)(O)CCl)O2 (stereo not given)
1.04 µM: HCT-15
active: UACC-62 0.728 µM | 786-0 0.889 µM | ACHN 0.114 µM | MDA-N 0.51 µM | OVCAR-8 0.219 µM | SF-539 0.443 µM | NCI/ADR-RES 0.679 µM | NCI-H23 0.512 µM | K562 0.0242 µM | HOP-62 0.733 µM | SW-620 0.0277 µM
inactive: HOP-92 2.45 µM | DU-145 2.31 µM | SK-OV-3 4.35 µM | PC-3 1.22 µM | SNB-19 4.85 µM | UACC-257 1.98 µM | SNB-75 3.35 µM | T47D 2.8 µM

CC(/C=C/C=C\C=C\C=C(/C)C(=O)NC(C)CO)=C\C(C)C(O)/C(C)=C/C(C)CCc1ccccc1 (stereo not given)
12.8 µM: HCT-15
active: ACHN 0.274 µM | UACC-257 0.0359 µM | NCI-H23 < 0.01 µM | K562 0.364 µM
inactive: HOP-92 5.41 µM | DU-145 13.8 µM | SK-OV-3 16.4 µM | PC-3 7.94 µM | UACC-62 8.61 µM | SNB-19 15.3 µM | 786-0 13.4 µM | MDA-N 12.2 µM | OVCAR-8 6.82 µM | SF-539 14.1 µM | SNB-75 13 µM | T47D 3.61 µM | NCI/ADR-RES 15.6 µM | HOP-62 12.4 µM | SW-620 13.6 µM

CC12CC1C(c1cccc([N+](=O)[O-])c1)(c1cccc([N+](=O)[O-])c1)N=N2 (stereo not given)
20.4 µM: HCT-15
inactive: HOP-92 14.1 µM | DU-145 24.3 µM | SK-OV-3 > 100 µM | PC-3 25 µM | UACC-62 15.9 µM | SNB-19 32.5 µM | 786-0 20.7 µM | ACHN 15.8 µM | MDA-N 23.2 µM | OVCAR-8 25.1 µM | UACC-257 28.1 µM | SF-539 25.5 µM | SNB-75 24.6 µM | T47D 25.8 µM | NCI/ADR-RES 22.9 µM | NCI-H23 19.1 µM | K562 29.9 µM | HOP-62 > 100 µM | SW-620 23.2 µM

COC(=O)C(Cc1ccc2c(c1)CCC2)Cc1ccc2c(c1)CCC2
89.7 µM: HCT-15
inactive: HOP-92 31.3 µM | DU-145 > 100 µM | SK-OV-3 > 100 µM | PC-3 73.3 µM | UACC-62 > 100 µM | SNB-19 > 100 µM | 786-0 78.2 µM | ACHN 68.7 µM | MDA-N 59.3 µM | OVCAR-8 53.6 µM | UACC-257 37 µM | SF-539 > 100 µM | SNB-75 71.3 µM | T47D 20.9 µM | NCI/ADR-RES > 100 µM | NCI-H23 29.6 µM | K562 43.1 µM | HOP-62 > 100 µM | SW-620 > 100 µM

COc1ccc(C(C#N)NC23CC4CC(CC(C4)C2)C3)cc1 (stereo not given)
> 100 µM: HCT-15
inactive: HOP-92 67.9 µM | DU-145 > 100 µM | SK-OV-3 > 100 µM | PC-3 > 100 µM | UACC-62 > 100 µM | SNB-19 > 100 µM | 786-0 > 100 µM | ACHN > 100 µM | MDA-N > 100 µM | OVCAR-8 > 100 µM | UACC-257 > 100 µM | SF-539 > 100 µM | SNB-75 > 100 µM | T47D > 100 µM | NCI/ADR-RES > 100 µM | NCI-H23 > 100 µM | K562 > 100 µM | HOP-62 > 100 µM | SW-620 > 100 µM

Nc1ccc(C(=O)N2CCC[C@H]2CO)c(N)c1
> 100 µM: HCT-15
inactive: HOP-92 > 100 µM | DU-145 > 100 µM | SK-OV-3 > 100 µM | PC-3 > 100 µM | UACC-62 > 100 µM | SNB-19 > 100 µM | 786-0 > 100 µM | ACHN > 100 µM | MDA-N > 100 µM | OVCAR-8 > 100 µM | UACC-257 > 100 µM | SF-539 > 100 µM | SNB-75 > 100 µM | T47D > 100 µM | NCI/ADR-RES > 100 µM | NCI-H23 > 100 µM | K562 > 100 µM | HOP-62 > 100 µM | SW-620 > 100 µM

C[C@@H]1OCC(O)C([C@H]2OC(c3ccccc3)=N[C@H]2CO)O1 (stereo not given in full)
inactive: HOP-92 > 100 µM | DU-145 > 100 µM | SK-OV-3 > 100 µM | PC-3 > 100 µM | UACC-62 > 100 µM | SNB-19 > 100 µM | 786-0 > 100 µM | ACHN > 100 µM | MDA-N > 100 µM | OVCAR-8 > 100 µM | UACC-257 > 100 µM | SF-539 > 100 µM | SNB-75 72.1 µM | T47D > 100 µM | NCI/ADR-RES > 100 µM | NCI-H23 > 100 µM | K562 > 100 µM | HOP-62 > 100 µM | SW-620 > 100 µM
> 100 µM: HCT-15

C=C(C)C1CCC2(C)C1CCC1(C)C2CCC2C3(C)C4OC(OC4=O)C(C)(C)C3CCC21C (stereo not given)
inactive: HOP-92 > 100 µM | DU-145 > 100 µM | SK-OV-3 > 100 µM | PC-3 > 100 µM | UACC-62 > 100 µM | SNB-19 > 100 µM | 786-0 > 100 µM | ACHN > 100 µM | MDA-N > 100 µM | OVCAR-8 > 100 µM | UACC-257 > 100 µM | SF-539 > 100 µM | SNB-75 > 100 µM | T47D 64.6 µM | NCI/ADR-RES > 100 µM | NCI-H23 > 100 µM | K562 33 µM | HOP-62 > 100 µM | SW-620 > 100 µM
> 100 µM: HCT-15

O=C1O/C(=C\c2ccc(O)c(Br)c2)C(c2ccc(O)cc2)=C1Cl
36.6 µM: HCT-15
inactive: HOP-92 37.4 µM | DU-145 61.1 µM | SK-OV-3 > 100 µM | PC-3 51.1 µM | UACC-62 16.4 µM | SNB-19 89.3 µM | 786-0 42 µM | ACHN 49.9 µM | MDA-N 26.1 µM | OVCAR-8 42.5 µM | UACC-257 42.7 µM | SF-539 40.6 µM | SNB-75 53.3 µM | T47D 58.3 µM | NCI/ADR-RES 29.6 µM | NCI-H23 22.4 µM | K562 68.4 µM | HOP-62 46.7 µM | SW-620 38.2 µM

Cn1cc2c3ccccc3nc-2c2ccccc21 [ISOCRYPTOLEPINE]
inactive: HOP-92 1.91 µM | DU-145 2.31 µM | SK-OV-3 1.99 µM | PC-3 2.52 µM | UACC-62 1.6 µM | SNB-19 2.96 µM | 786-0 2.1 µM | ACHN 1.71 µM | MDA-N 2.04 µM | OVCAR-8 1.6 µM | UACC-257 2.31 µM | SF-539 1.72 µM | SNB-75 1.8 µM | T47D 2.07 µM | NCI/ADR-RES 1.72 µM | NCI-H23 1.51 µM | K562 1.94 µM | HOP-62 1.59 µM | SW-620 1.12 µM
1.97 µM: HCT-15

COS(C)(=O)=O [METHANESULFONIC ACID METHYL ESTER]
> 2 µM: HCT-15
inactive: HOP-92 > 2 µM | DU-145 > 2 µM | SK-OV-3 > 2 µM | PC-3 > 2 µM | UACC-62 > 2 µM | SNB-19 > 2 µM | 786-0 > 2 µM | ACHN > 2 µM | MDA-N > 2 µM | OVCAR-8 > 2 µM | UACC-257 > 2 µM | SF-539 > 2 µM | SNB-75 > 2 µM | T47D > 2 µM | NCI/ADR-RES > 2 µM | NCI-H23 > 2 µM | K562 > 2 µM | HOP-62 > 2 µM | SW-620 > 2 µM
